Assay results: patent publication US9944678B2, “Immunomodulators” (BRISTOL-MYERS SQUIBB COMPANY, priority 2014, dated 2018)
pIC50: −log10 of the molar value. Starred links: 1 amine or outer side, 2 acyl side, 3 side chain; linkers in the order of their positions; H or OH if unused. Positions of bridges follow the written chain, without caps; N, C: chain ends. Non-standard residues stand in square brackets, D forms with d. Residues, ends and D or L forms follow the SMILES beside them. ξ: configuration not given here. X5 = NC(=O)CNC(=O)[C@H](CSCC(=O)[*:1])CC(=O)C1(N[*:2])CC1; X2 = CC[C@H]1C[C@@]1(N[*:1])C(=O)[*:2]; X4 = C[C@H]1C[C@@]1(N[*:1])C(=O)[*:2]; Bta = N[C@@H](Cc1csc2ccccc12)C(=O)O; X3 = C[C@H]1CC1(N[*:1])C(=O)[*:2]; Hyp = O=C(O)[C@@H]1C[C@@H](O)CN1; Aic = NC1(C(=O)O)Cc2ccccc2C1; NMeNle = CCCC[C@H](NC)C(=O)O; hLeu = CC(C)CC[C@H](N)C(=O)O; NMeA = CN[C@@H](C)C(=O)O; Ac5c = NC1(C(=O)O)CCCC1; Dab = NCC[C@H](N)C(=O)O; Dap = NC[C@H](N)C(=O)O; Ac3c = NC1(C(=O)O)CC1; Aib = CC(C)(N)C(=O)O; ξC = NC(CS)C(=O)O

Each molecule was assayed against T1, PD-1-Ig binding to PD-L1-TVMV-His (PD-L1-His) (Homo sapiens, UniProt Q9NZQ7) (assay: PD-1/PD-L1 Homogenous Time-Resolved Fluorescence (HTRF) binding assay). Conditions: PD-1-Ig/PD-L1-His binding; numeric values.
T1 construct: hPDL1(19-239)-TVMV-His; TVMV protease cleavage site (C); made in house; host or cells: HEK293T cells
Source text: The ability of the macrocyclic peptides of the present disclosure to bind to PD-L1 was investigated using a PD-1/PD-L1 Homogenous Time-Resolved Fluorescence (HTRF) binding assay.
Homogenous Time-Resolved Fluorescence (HTRF) Assays of Binding of Soluble PD-1 to Soluble PD-L1. Soluble PD-1 and soluble PD-L1 refers to proteins with carboxyl-end truncations that remove the transmembrane-spanning regions and are fused to heterologous sequences, specifically the Fc portion of the human immunoglobuling G sequence (Ig) or the hexahistidine epitope tag (His). All binding studies were performed in an HTRF assay buffer consisting of dPBS supplemented with 0.1% (w/v) bovine serum albumin and 0.05% (v/v) Tween-20. For the PD-1-Ig/PD-L1-His binding assay, inhibitors were pre-incubated with PD-L1-His (10 nM final) for 15 m in 4 μl of assay buffer, followed by addition of PD-1-Ig (20 nM final) in 1 μl of assay buffer and further incubation for 15 m. PD-L1 fusion proteins from either human, cynomologous macaques, mouse, or other species were used. HTRF detection was achieved using europium crypate-labeled anti-Ig monoclonal antibody (1 nM final) and allophycocyanin (APC) labeled anti-His monoclonal antibody (20 nM final). Antibodies were diluted in HTRF detection buffer and 5 μl was dispensed on top of binding reaction. The reaction was allowed to equilibrate for 30 minutes and signal (665 nm/620 nm ratio) was obtained using an EnVision fluorometer. Additional binding assays were established between PD-1-Ig/PD-L2-His (20 and 5 nM, respectively), CD80-His/PD-L1-Ig (100 and 10 nM, respectively) and CD80-His/CTLA4-Ig (10 and 5 nM, respectively). Binding/competition studies between biotinylated Compound No. 71 and human PD-L1-His were performed as follows. Macrocyclic peptide inhibitors were pre-incubated with PD-L1-His (10 nM final) for 60 minutes in 4 μl of assay buffer followed by addition of biotinylated Compound No. 71 (0.5 nM final) in 1 μl of assay buffer. Binding was allowed to equilibrate for 30 minutes followed by addition of europium crypated labeled Streptavidin (2.5 pM final) and APC-labeled anti-His (20 nM final) in 5 μl of HTRF buffer. The reaction was allowed to equilibrate for 30 m and signal (665 nm/620 nm ratio) was obtained using an EnVision fluorometer.
Recombinant Proteins. Carboxyl-truncated human PD-1 (amino acids 25-167) with a C-terminal human Ig epitope tag [hPD-1 (25-167)-3S-IG] and human PD-L1 (amino acids 18-239) with a C-terminal His epitope tag [hPD-L1(19-239)-tobacco vein mottling virus protease cleavage site (TVMV)-His] were expressed in HEK293T cells and purified sequentially by recombinant Protein A affinity chromatography and size exclusion chromatography. Human PD-L2-His (Sino Biologicals), CD80-His (Sino Biologicals), CTLA4-Ig (RnD Systems) were all obtained through commercial sources.
Ranges are as follows: A=0.10-10 μM; B=0.01-0.099 μM; C=0.004-0.0099 μM.

T1 sequence (Q9NZQ7 with tags, fused parts or gaps): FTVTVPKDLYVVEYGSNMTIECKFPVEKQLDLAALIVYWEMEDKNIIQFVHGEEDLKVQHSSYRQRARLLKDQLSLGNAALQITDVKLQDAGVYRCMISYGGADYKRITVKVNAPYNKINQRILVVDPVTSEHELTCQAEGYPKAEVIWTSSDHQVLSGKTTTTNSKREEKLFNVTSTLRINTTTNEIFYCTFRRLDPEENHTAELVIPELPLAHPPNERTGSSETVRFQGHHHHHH

| pIC50 | SMILES |
| --- | --- |
| 6.00 | CCCC[C@H]1C(=O)N(C)[C@@H](CCCC)C(=O)N[C@@H](CCCNC(=N)N)C(=O)NC(C(=O)NCC(N)=O)CSCC(=O)N[C@@H](Cc2ccc(O)cc2)C(=O)N(C)[C@@H](C)C(=O)N[C@@H](CC(N)=O)C(=O)N2CCC[C@H]2C(=O)N[C@@H](Cc2cnc[nH]2)C(=O)N[C@@H](CC(C)C)C(=O)NC2(C[C@@H]2C)C(=O)N[C@@H](Cc2c[nH]c3ccccc23)C(=O)N[C@@H](CO)C(=O)N[C@@H](Cc2csc3ccccc23)C(=O)N1C (stereo partly drawn) [Example 10005] ({CH2CO}-Y[NMeA]NPHL[X3]WS[Bta][NMeNle][NMeNle]R[ξC]G-NH2; thioether N-14) |
| 8.38 | CCCC[C@H]1C(=O)N(C)[C@@H](CCCC)C(=O)N[C@@H](CCCNC(=N)N)C(=O)NC(C(=O)NCC(N)=O)CSCC(=O)N[C@@H](Cc2ccc(O)cc2)C(=O)NC2(CC2)C(=O)N[C@@H](CC(N)=O)C(=O)N2CCC[C@H]2C(=O)N[C@@H](Cc2c[nH]cn2)C(=O)N[C@@H](CC(C)C)C(=O)N2C[C@H](O)C[C@H]2C(=O)N[C@@H](Cc2c[nH]c3ccccc23)C(=O)N[C@@H](CO)C(=O)N[C@@H](Cc2c[nH]c3ccccc23)C(=O)N1C (stereo partly drawn) [Example 9002] |

Same assay, conditions: PD-1-Ig/PD-L1-His binding; values given as range classes

| pIC50 | SMILES |
| --- | --- |
| 5.00 to 7.00 | CCCC[C@H]1C(=O)N(C)[C@@H](CCCC)C(=O)N[C@@H](CCCNC(=N)N)C(=O)NC(C(=O)NCC(N)=O)CSCC(=O)N[C@@H](Cc2ccc(O)cc2)C(=O)N(C)[C@@H](C)C(=O)N[C@@H](CC(N)=O)C(=O)N2C[C@H](O)C[C@H]2C(=O)N[C@@H](Cc2cnc[nH]2)C(=O)N[C@@H](CC(C)C)C(=O)NC2(C[C@@H]2C)C(=O)N[C@@H](Cc2c[nH]c3ccccc23)C(=O)N[C@@H](CO)C(=O)N[C@@H](Cc2c[nH]c3ccccc23)C(=O)N1C (stereo partly drawn) [Example 10007] |
| 7.00 to 8.00 | CCCC[C@H]1C(=O)N(C)[C@@H](CCCC)C(=O)N[C@@H](CCCNC(=N)N)C(=O)NC(C(=O)NCC(N)=O)CSCC(=O)N[C@@H](Cc2ccc(O)cc2)C(=O)N(C)[C@@H](C)C(=O)N[C@@H](CC(N)=O)C(=O)N[C@]2(C[C@@H]2C)C(=O)N[C@@H](Cc2cnc[nH]2)C(=O)N[C@@H](CC(C)C)C(=O)N2C[C@H](O)C[C@H]2C(=O)N[C@@H](Cc2c[nH]c3ccccc23)C(=O)N[C@@H](CO)C(=O)N[C@@H](Cc2csc3ccccc23)C(=O)N1C (stereo partly drawn) [Example 10004] ({CH2CO}-Y[NMeA]N[X4]HL[Hyp]WS[Bta][NMeNle][NMeNle]R[ξC]G-NH2; thioether N-14) |
| 5.00 to 7.00 | CCCC[C@H]1C(=O)N(C)[C@@H](CCCC)C(=O)N[C@@H](CCCNC(=N)N)C(=O)NC(C(=O)NCC(N)=O)CSCC(=O)N[C@@H](Cc2ccc(O)cc2)C(=O)N(C)[C@@H](C)C(=O)N[C@@H](CC(N)=O)C(=O)N[C@]2(C[C@@H]2CC)C(=O)N[C@@H](Cc2cnc[nH]2)C(=O)N[C@@H](CC(C)C)C(=O)N2C[C@H](O)C[C@H]2C(=O)N[C@@H](Cc2c[nH]c3ccccc23)C(=O)N[C@@H](CO)C(=O)N[C@@H](Cc2c[nH]c3ccccc23)C(=O)N1C (stereo partly drawn) [Example 10009] ({CH2CO}-Y[NMeA]N[X2]HL[Hyp]WSW[NMeNle][NMeNle]R[ξC]G-NH2; thioether N-14) |
| 5.00 to 7.00 | CCCC[C@H]1C(=O)N(C)[C@@H](CCCC)C(=O)N[C@@H](CCCNC(=N)N)C(=O)NC(C(=O)NCC(N)=O)CSCC(=O)N[C@@H](Cc2ccc(O)cc2)C(=O)N(C)[C@@H](C)C(=O)N[C@@H](CC(N)=O)C(=O)N[C@]2(C[C@@H]2C)C(=O)N[C@@H](Cc2cnc[nH]2)C(=O)N[C@@H](CC(C)C)C(=O)N2CCC[C@H]2C(=O)N[C@@H](Cc2c[nH]c3ccccc23)C(=O)N[C@@H](CO)C(=O)N[C@@H](Cc2csc3ccccc23)C(=O)N1C (stereo partly drawn) [Example 10003] ({CH2CO}-Y[NMeA]N[X4]HLPWS[Bta][NMeNle][NMeNle]R[ξC]G-NH2; thioether N-14) |

Continued, molecule first:

| SMILES | pIC50 |
| --- | --- |
| CCCC[C@H]1C(=O)N(C)[C@@H](CCCC)C(=O)N[C@@H](CC(C)C)C(=O)N[C@H](C(=O)NCC(N)=O)CSCC(=O)N[C@@H](Cc2ccc(O)cc2)C(=O)N(C)[C@@H](C)C(=O)N[C@@H](CC(N)=O)C(=O)N2CCC[C@H]2C(=O)NC2(CCCC2)C(=O)N[C@@H](CC(C)C)C(=O)N2C[C@H](O)C[C@H]2C(=O)N[C@@H](Cc2c[nH]c3ccccc23)C(=O)N[C@@H](CCN)C(=O)N[C@@H](Cc2c[nH]c3ccccc23)C(=O)N1C [Example 9017] ({CH2CO}-Y[NMeA]NP[Ac5c]L[Hyp]W[Dab]W[NMeNle][NMeNle]LCG-NH2; thioether N-14) | 7.00 to 8.00 |
| CCCC[C@H]1C(=O)N(C)[C@@H](CCCC)C(=O)NC2(CC2)C(=O)C[C@H](C(=O)NCC(N)=O)CSCC(=O)N[C@@H](Cc2ccccc2)C(=O)N(C)[C@@H](C)C(=O)N[C@@H](CC(N)=O)C(=O)N2CCC[C@H]2C(=O)N[C@@H](Cc2c[nH]cn2)C(=O)N[C@@H](CCC(C)C)C(=O)NCC(=O)N[C@@H](Cc2c[nH]c3ccccc23)C(=O)N[C@@H](CO)C(=O)N[C@@H](Cc2c[nH]c3ccccc23)C(=O)N1C [Example 5001] (F[NMeA]NPH[hLeu]GWSW[NMeNle][NMeNle]; linker N-C via X5) | 5.00 to 7.00 |
| CCCC[C@H]1C(=O)N(C)[C@@H](CCCC)C(=O)N[C@@H](CC(C)C)C(=O)N[C@H](C(=O)NCC(N)=O)CSCC(=O)N[C@@H](Cc2ccc(O)cc2)C(=O)N(C)[C@@H](C)C(=O)N[C@@H](CC(N)=O)C(=O)N2CCC[C@H]2C(=O)N[C@@H](CN)C(=O)NC(C)(C)C(=O)N2C[C@H](O)C[C@H]2C(=O)N[C@@H](Cc2c[nH]c3ccccc23)C(=O)N[C@@H](CCN)C(=O)N[C@@H](Cc2c[nH]c3ccccc23)C(=O)N1C [Example 9009] ({CH2CO}-Y[NMeA]NP[Dap][Aib][Hyp]W[Dab]W[NMeNle][NMeNle]LCG-NH2; thioether N-14) | 5.00 to 7.00 |
| CCCC[C@H]1C(=O)N(C)[C@@H](CCCC)C(=O)N[C@@H](CC(C)C)C(=O)N[C@H](C(=O)NCC(N)=O)CSCC(=O)N[C@@H](Cc2ccc(O)cc2)C(=O)N(C)[C@@H](C)C(=O)N[C@@H](CC(N)=O)C(=O)N2CCC[C@H]2C(=O)NC2(CC2)C(=O)N[C@@H](CC(C)C)C(=O)N2C[C@H](O)C[C@H]2C(=O)N[C@@H](Cc2c[nH]c3ccccc23)C(=O)N[C@@H](CCN)C(=O)N[C@@H](Cc2c[nH]c3ccccc23)C(=O)N1C [Example 9012] ({CH2CO}-Y[NMeA]NP[Ac3c]L[Hyp]W[Dab]W[NMeNle][NMeNle]LCG-NH2; thioether N-14) | 7.00 to 8.00 |
| CCCC[C@H]1C(=O)N(C)[C@@H](CCCC)C(=O)NC(C)(C)C(=O)N[C@H](C(=O)NCC(N)=O)CSCC(=O)N[C@@H](Cc2ccc(O)cc2)C(=O)N(C)[C@@H](C)C(=O)N[C@@H](CC(N)=O)C(=O)N2CCC[C@H]2C(=O)N[C@@H](CN)C(=O)N[C@@H](CC(C)C)C(=O)N2C[C@H](O)C[C@H]2C(=O)N[C@@H](Cc2c[nH]c3ccccc23)C(=O)N[C@@H](CCN)C(=O)N[C@@H](Cc2c[nH]c3ccccc23)C(=O)N1C [Example 9005] ({CH2CO}-Y[NMeA]NP[Dap]L[Hyp]W[Dab]W[NMeNle][NMeNle][Aib]CG-NH2; thioether N-14) | 5.00 to 7.00 |
| CCCC[C@H]1C(=O)N(C)[C@@H](CCCC)C(=O)N[C@@H](CC(C)C)C(=O)N[C@H](C(=O)NCC(N)=O)CSCC(=O)N[C@@H](Cc2ccc(O)cc2)C(=O)N(C)[C@@H](C)C(=O)N[C@@H](CC(N)=O)C(=O)N2CCC[C@H]2C(=O)NC2(Cc3ccccc3C2)C(=O)N[C@@H](CC(C)C)C(=O)N2C[C@H](O)C[C@H]2C(=O)N[C@@H](Cc2c[nH]c3ccccc23)C(=O)N[C@@H](CCN)C(=O)N[C@@H](Cc2c[nH]c3ccccc23)C(=O)N1C [Example 9018] ({CH2CO}-Y[NMeA]NP[Aic]L[Hyp]W[Dab]W[NMeNle][NMeNle]LCG-NH2; thioether N-14) | 7.00 to 8.00 |
